{"source": "paper PMC12454493", "about": "“Insight on novel sulfamoylphenyl pyrazole derivatives as anticancer carbonic anhydrase inhibitors” (Molecular Diversity, 2024)", "key": {"[1]": {"tested_on": "MDA-MB-231/ATCC", "assay": "NCI-60 one-dose SRB screen (Breast Cancer)", "format": "cell-based", "settings": "Homo sapiens, single dose 10 µM, 48 h, read-out: Growth inhibition percent (GI %)", "procedure": "(§1) The National Cancer Institute (NCI) Developmental Therapeutic Program (www.dtp.nci.nih.gov) selected the 20 novel synthesized compounds 4a-e, 5a-e, 6a-c, 9a-e, 10 and 11 to test for their anticancer activity at a single dose of 10 µM using SRB assay. […] Supplementary Data S3; Table S1 presents the detailed screening results of the most promising compounds. The preliminary screening’s detailed results for the remaining compounds are elucidated in the (Supplementary Data S3; Table S2).\n(§2) The guidelines of the Drug Evaluation Branch’s protocol at the NCI in Bethesda served as the basis for the in vitro anticancer screening assays. at one dose 10 µM against a panel of 60 cancer cell lines. The human tumor cell lines used belonged to nine panels: leukemia, melanoma, lung, colon, CNS, ovarian, renal, prostate and breast cancers using the sulforhodamine B (SRB) assay in a 48 h drug exposure protocol."}, "[2]": {"tested_on": "MCF-7", "assay": "NCI-60 one-dose SRB screen (Breast Cancer)", "format": "cell-based", "settings": "Homo sapiens, MCF7, single dose 10 µM, 48 h, read-out: Growth inhibition percent (GI %)", "procedure": "as §1, §2"}, "[3]": {"tested_on": "LOX IMVI", "assay": "NCI-60 one-dose SRB screen (Melanoma)", "format": "cell-based", "settings": "Homo sapiens, single dose 10 µM, 48 h, read-out: Growth inhibition percent (GI %)", "procedure": "as §1, §2"}, "[4]": {"tested_on": "MALME-3M", "assay": "NCI-60 one-dose SRB screen (Melanoma)", "format": "cell-based", "settings": "Homo sapiens, single dose 10 µM, 48 h, read-out: Growth inhibition percent (GI %)", "procedure": "as §1, §2"}, "[5]": {"tested_on": "SK-MEL-5", "assay": "NCI-60 one-dose SRB screen (Melanoma)", "format": "cell-based", "settings": "Homo sapiens, single dose 10 µM, 48 h, read-out: Growth inhibition percent (GI %)", "procedure": "as §1, §2"}, "[6]": {"tested_on": "SK-MEL-2", "assay": "NCI-60 one-dose SRB screen (Melanoma)", "format": "cell-based", "settings": "Homo sapiens, single dose 10 µM, 48 h, read-out: Growth inhibition percent (GI %)", "procedure": "as §1, §2"}, "[7]": {"tested_on": "MDA-MB-435", "assay": "NCI-60 one-dose SRB screen (Melanoma)", "format": "cell-based", "settings": "Homo sapiens, single dose 10 µM, 48 h, read-out: Growth inhibition percent (GI %)", "procedure": "as §1, §2"}, "[8]": {"tested_on": "UACC-62", "assay": "NCI-60 one-dose SRB screen (Melanoma)", "format": "cell-based", "settings": "Homo sapiens, single dose 10 µM, 48 h, read-out: Growth inhibition percent (GI %)", "procedure": "as §1, §2"}, "[9]": {"tested_on": "UACC-257", "assay": "NCI-60 one-dose SRB screen (Melanoma)", "format": "cell-based", "settings": "Homo sapiens, single dose 10 µM, 48 h, read-out: Growth inhibition percent (GI %)", "procedure": "as §1, §2"}, "[10]": {"tested_on": "M14", "assay": "NCI-60 one-dose SRB screen (Melanoma)", "format": "cell-based", "settings": "Homo sapiens, single dose 10 µM, 48 h, read-out: Growth inhibition percent (GI %)", "procedure": "as §1, §2"}, "[11]": {"tested_on": "SK-MEL-28", "assay": "NCI-60 one-dose SRB screen (Melanoma)", "format": "cell-based", "settings": "Homo sapiens, single dose 10 µM, 48 h, read-out: Growth inhibition percent (GI %)", "procedure": "as §1, §2"}, "[12]": {"molecular_target": "hCA XII (Homo sapiens, UniProt O43570)", "sequence (O43570 25-354)": "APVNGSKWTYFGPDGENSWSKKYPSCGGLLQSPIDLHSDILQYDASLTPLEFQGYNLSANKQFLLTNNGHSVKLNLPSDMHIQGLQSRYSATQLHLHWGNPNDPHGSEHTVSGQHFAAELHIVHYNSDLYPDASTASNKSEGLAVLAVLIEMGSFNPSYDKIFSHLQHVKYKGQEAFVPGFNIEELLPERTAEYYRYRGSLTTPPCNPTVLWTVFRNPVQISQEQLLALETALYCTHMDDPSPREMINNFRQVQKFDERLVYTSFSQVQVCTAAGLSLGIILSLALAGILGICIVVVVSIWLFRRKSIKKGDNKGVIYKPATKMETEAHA", "assay": "CA inhibitory activity, spectrophotometric p-NPA assay", "format": "biochemical", "settings": "p-NPA substrate, pH 7.5, 25 °C, triplicate; read-out: IC50 (µM) ± SD hCA XII"}, "[13]": {"tested_on": "COLO 205", "assay": "NCI-60 one-dose SRB screen (Colon Cancer)", "format": "cell-based", "settings": "Homo sapiens, single dose 10 µM, 48 h, read-out: Growth inhibition percent (GI %)", "procedure": "as §1, §2"}, "[14]": {"tested_on": "KM12", "assay": "NCI-60 one-dose SRB screen (Colon Cancer)", "format": "cell-based", "settings": "Homo sapiens, single dose 10 µM, 48 h, read-out: Growth inhibition percent (GI %)", "procedure": "as §1, §2"}, "[15]": {"tested_on": "HCT-116", "assay": "NCI-60 one-dose SRB screen (Colon Cancer)", "format": "cell-based", "settings": "Homo sapiens, single dose 10 µM, 48 h, read-out: Growth inhibition percent (GI %)", "procedure": "as §1, §2"}, "[16]": {"tested_on": "SW-620", "assay": "NCI-60 one-dose SRB screen (Colon Cancer)", "format": "cell-based", "settings": "Homo sapiens, single dose 10 µM, 48 h, read-out: Growth inhibition percent (GI %)", "procedure": "as §1, §2"}, "[17]": {"tested_on": "HT29", "assay": "NCI-60 one-dose SRB screen (Colon Cancer)", "format": "cell-based", "settings": "Homo sapiens, HT-29, single dose 10 µM, 48 h, read-out: Growth inhibition percent (GI %)", "procedure": "as §1, §2"}, "[18]": {"tested_on": "HCT-15", "assay": "NCI-60 one-dose SRB screen (Colon Cancer)", "format": "cell-based", "settings": "Homo sapiens, single dose 10 µM, 48 h, read-out: Growth inhibition percent (GI %)", "procedure": "as §1, §2"}, "[19]": {"tested_on": "HCC-2998", "assay": "NCI-60 one-dose SRB screen (Colon Cancer)", "format": "cell-based", "settings": "Homo sapiens, single dose 10 µM, 48 h, read-out: Growth inhibition percent (GI %)", "procedure": "as §1, §2"}, "[20]": {"tested_on": "PC-3", "assay": "NCI-60 one-dose SRB screen (Prostate Cancer)", "format": "cell-based", "settings": "Homo sapiens, single dose 10 µM, 48 h, read-out: Growth inhibition percent (GI %)", "procedure": "as §1, §2"}, "[21]": {"tested_on": "DU-145", "assay": "NCI-60 one-dose SRB screen (Prostate Cancer)", "format": "cell-based", "settings": "Homo sapiens, single dose 10 µM, 48 h, read-out: Growth inhibition percent (GI %)", "procedure": "as §1, §2"}, "[22]": {"molecular_target": "hCA IX (Homo sapiens, UniProt Q16790)", "assay": "CA inhibitory activity, spectrophotometric p-NPA assay", "format": "biochemical", "settings": "p-NPA substrate, pH 7.5, 25 °C, triplicate; read-out: IC50 (µM) ± SD hCA IX", "protocol": "The software used to calculate CA IC50 along with statistical analysis of the results is GraphPad Prism 9.00. Results were estimated by using one-way ANOVA and the Bonferroni’s multiple comparisons posthoc test was performed (P < 0.05) [46]\nCarbonic anhydrase inhibitory activity:\nThe spectrophotometric assay was conducted in HEPES-Tris buffer, NaCl of pH 7.5 (20mM) at 25◦C. Each inhibitory well-consisted of 50 μL of assay buffer solution, 20 μL of hCA enzyme solution (20 ng/μL in Assay Buffer), and 50 μL of test compound in HPLC grade DMSO (maintain 10% of the final concentration). The mixture solution was\nSubstrate p-nitrophenyl acetate (p-NPA) (0.7mM) was prepared in HPLC grade methanol and the reaction was started by adding 20 μL to a well in a 96-well-plate. The amount of product formed was measured for 30 min continuously at 1 min intervals at 400 nm in a 96-well-plate using xMARK microplate spectrophotometer, Bio-Rad (USA). The activity of the controlled compound was taken as 100%. All experiments were carried out in triplicates of each used concentration, and results are represented as a"}}, "note": "Values joined by “and” are separate entries in the source; they are usually repeats but may differ in a detail not shown here. Identical values can stand only once.", "data": [{"smiles": "NC(=S)NNC(=O)c1cn(-c2ccc(S(N)(=O)=O)cc2)nc1-c1ccccc1", "note": "[Compound 9a, 2-[3-Phenyl-1-(4-sulfamoylphenyl)-1H-pyrazole-4-carbonyl] hydrazine-1-carbothioamide]", "values": [{"measurement": "inhibition at 10 µM", "setting": "[1]", "result": "< 5", "unit": "%"}, {"measurement": "inhibition at 10 µM", "setting": "[2]", "result": "< 5", "unit": "%"}, {"measurement": "inhibition at 10 µM", "setting": "[3]", "result": "< 5", "unit": "%"}, {"measurement": "inhibition at 10 µM", "setting": "[4]", "result": "< 5", "unit": "%"}, {"measurement": "inhibition at 10 µM", "setting": "[5]", "result": "< 5", "unit": "%"}, {"measurement": "inhibition at 10 µM", "setting": "[6]", "result": "< 5", "unit": "%"}, {"measurement": "inhibition at 10 µM", "setting": "[7]", "result": "< 5", "unit": "%"}, {"measurement": "inhibition at 10 µM", "setting": "[8]", "result": 8.26, "unit": "%"}, {"measurement": "inhibition at 10 µM", "setting": "[9]", "result": "< 5", "unit": "%"}, {"measurement": "inhibition at 10 µM", "setting": "[10]", "result": "< 5", "unit": "%"}, {"measurement": "inhibition at 10 µM", "setting": "[11]", "result": "< 5", "unit": "%"}, {"measurement": "IC50", "setting": "[12]", "result": "0.605 ± 0.023", "unit": "µM"}, {"measurement": "inhibition at 10 µM", "setting": "[13]", "result": "< 5", "unit": "%"}, {"measurement": "inhibition at 10 µM", "setting": "[14]", "result": "< 5", "unit": "%"}, {"measurement": "inhibition at 10 µM", "setting": "[15]", "result": "< 5", "unit": "%"}, {"measurement": "inhibition at 10 µM", "setting": "[16]", "result": "< 5", "unit": "%"}, {"measurement": "inhibition at 10 µM", "setting": "[17]", "result": 10.8, "unit": "%"}, {"measurement": "inhibition at 10 µM", "setting": "[18]", "result": "< 5", "unit": "%"}, {"measurement": "inhibition at 10 µM", "setting": "[19]", "result": "< 5", "unit": "%"}, {"measurement": "inhibition at 10 µM", "setting": "[20]", "result": "< 5", "unit": "%"}, {"measurement": "inhibition at 10 µM", "setting": "[21]", "result": "< 5", "unit": "%"}, {"measurement": "IC50", "setting": "[22]", "result": "0.21 µM and 0.215 µM"}]}]}
